# Test results published in publication PMC10377091 (Brain Sciences, 2023).
# Read-outs that look alike come from different tables or passages of the source.
# Columns and labels:
# [1] = system: hiPS-BCECs; assay: Cytotoxicity, CellTiter-Glo 2.0 Cell Viability Assay; conditions: 1% SDS (positive control), 4 h incubation, luminescence; mean ± SEM
# Protocol: Cytotoxicity of phoenixin-14 against hiPS-BCECs was evaluated for three concentrations (1, 10, and 100 nMol) after 4 h incubation with untreated (negative control) and 1% Sodium Dodecyl Sulfate (SDS, Carl Roth, Karlsruhe, Germany)-treated (positive control) hiPS-BCECs as controls. After treatment, a CellTiter-Glo® 2.0 Cell Viability Assay (Promega, Mannheim, Germany) was performed according to the manufacturer’s instructions. Luminescence was measured with an Infinite M200 fluorescence reader (Tecan Group, Männedorf, Switzerland).
# Cytotoxicity studies were performed in triplicate and three independent biological replicates. Transport studies were performed in duplicate and repeated three times. […] When feasible based on the number of values, data were tested for normality using the Kolmogorov–Smirnov test; otherwise, they were assumed to be non-normally distributed. Results from the toxicity studies were analyzed using Kruskal–Wallis test and significance values were adjusted according to Bonferroni correction regarding multiple testing. To compare the results of the transport studies, an unpaired t-test was applied. Data are presented as mean ± SEM. The level of significance was defined as p < 0.05 (*).
# [2] = system: hiPSC-BCECs (brain capillary-like endothelial cells derived from human induced-pluripotent stem cells); assay: Transport assay across hiPSC-derived BBB mono-culture model (hiPS-BCEC); format: in vitro ADME; conditions: for clearance value: mean ± SEM; for permeability coefficient (PC): apical to basolateral, 4 h, 37 °C, ELISA
# Protocol: Human induced-pluripotent stem cells (hiPSC; IMR90-4, WiCell Research Institute, Madison, WI, USA) were cultured in mTeSRTM1 medium (StemCell Technologies, Vancouver, BC, Canada). The hiPSC-derived brain capillary-like endothelial cell (hiPS-BCEC) BBB model was built as previously described. In brief, using Accutase® solution (Sigma-Aldrich, Saint Louis, MO, USA), hiPSCs were dissociated into single cells and seeded in mTeSRTM1 medium (StemCell Technologies Inc.) including […]-27632 dihydrochloride (Tocris, Bristol, UK) on Matrigel® Growth Factor Reduced (GFR) Basement Membrane Matrix, Phenol Red-free (Corning, Corning, NY, USA) coated 6-well plates at a density of 7.5 × 103 hiPSC/cm^2. […] For the next two days, cells were treated with EC++ medium, consisting of human endothelial-[…], Thermo Fisher Scientific) supplemented with 200 × diluted serum-free B-27TM supplement (Thermo Fisher Scientific), 20 ng/mL hbFGF (PeproTech, Cranbury, NJ, USA), and 10 μM all-trans RA (Sigma-Aldrich). No medium change occurred on day 7. Using Accutase®, cells were seeded in EC++ medium at a density of 1 × 106 hiPSC/cm^2 onto 24-well ThinCert® cell culture inserts, with a pore size of 0.4 μm (Greiner BioOne, Frickenhausen, Germany), coated with 400 μg/mL collagen IV (Sigma-Aldrich) and supplemented with 100 μg/mL fibronectin (Thermo Fisher Scientific). Cells were cultured in EC++ medium for 24 h, followed by treatment with EC medium ([…] hbFGF and RA) for another 24 h, yielding purified hiPS-BCECs. Transport assays were performed in cell culture inserts (24-well format) on an orbital shaker (Edmund Buhler GmbH, Bodelshausen, Germany) at 100 rpm, 37 °C, 95% humidity, and 5% CO2. […] Stock solutions of commercially purchased phoenixin-14 (079-01, Phoenix Pharmaceuticals, Inc., Karlsruhe, Germany,) were diluted with EC medium to the desired concentrations (1 nMol or 10 nMol). In total, 200 μL of the final concentrations of phoenixin-14 were applied to the apical side of the BBB model. The basolateral side was supplied with 800 μL of EC medium. The transport was evaluated with a total incubation time of 4 h. Half-hourly, the basolateral medium was collected and replaced with fresh EC medium. As a control, the substances were incubated on empty collagen IV-/fibronectin-coated inserts to exclude major phoenixin-14 adsorption on the membrane. […] The concentration of phoenixin-14 in the apical and basolateral compartment was measured using a commercially purchased ELISA Kit (EK-079-01, Phoenix Pharmaceuticals). The intra-assay variability was 9.7%. The sensitivity for phoenixin was 0.07 ng/mL, while the linear detection ranged from 0.36 to 3.26 ng/mL (Phoenix Pharmaceuticals). […] Data are presented as mean ± SEM.
# [3] = system: hiPSC-BCECs (brain capillary-like endothelial cells derived from human induced-pluripotent stem cells); design: method as in PMID 28344002; conditions: control substances, previously published experiments in the hiPSC-based BBB model; mean ± SEM; cited from earlier work
# [4] = design: method as in PMID 34575559; conditions: in vivo in mice; cited from earlier work
compound,measurement,setting,value
"CCCCCCCCCCCCOS(=O)(=O)[O-].[Na+] [SDS, Sodium Dodecyl Sulfate]",cell viability in comparison to untreated hiPS-BCECs,[1],0.37 ± 0.02%
H-DVQPPGLKVWSDPF-NH2 [phoenixin-14],passage across the hiPSC-derived BBB model,"[2]; 1 and 10 nMol, phoenixin-14 alone, in vitro",did not cross
same,clearance value,"[2]; 1 nMol phoenixin-14, hiPS-BCEC mono-culture, resulting from PC",6.83e-07 ± 1.39e-07 mL/min
same,permeability coefficient (PC),"[2]; 10 nMol phoenixin-14, hiPS-BCEC mono-culture, experiment 1 of 3",0.059 µm/min
same,permeability coefficient (PC),"[2]; 10 nMol phoenixin-14, hiPS-BCEC mono-culture, experiment 2 of 3",0.056 µm/min
same,permeability coefficient (PC),"[2]; 10 nMol phoenixin-14, hiPS-BCEC mono-culture, experiment 3 of 3",0.019 µm/min
same,clearance value,"[2]; 10 nMol phoenixin-14, hiPS-BCEC mono-culture, based on PC",1.779e-06 ± 8.17e-07 mL/min
Cn1c(=O)c2c(ncn2C)n(C)c1=O [caffeine],permeability coefficient (PC),[3],51.06 ± 9.90 µm/min
same,clearance value,[4],1.111e-05 mL/min
